target: T1, mutant G12C K-RAS (Homo sapiens, UniProt P01116, G12C); test: covalent adduct formation (CAF) with mutant G12C K-RAS; format: binding; parameters: covalent adduct formation (CAF): unit not given here; conditions: Table 2; 10 micromolar, after 60 minutes
T1 construct: made in house; host or cells: E. coli BL21
Method: Embodiments disclosed herein are further illustrated by the following examples in Tables 1-4 and the Examples hereinbelow. The Tables indicate the compound number, structure, the observed mass spectral molecular weight peak, and covalent adduct formation (CAF) with a mutant G12C K-RAS after 60 minutes at a concentration of 10 micromolar.

% CAF(60 min) [%]	Compound
0	C=CC(=O)N1CCN(c2nc(=O)n3c4c(c(-c5c(O)cccc5F)c(Cl)cc24)OC[C@H]3CO)[C@@H](C)C1 [Example 23, (3R,10R)-7-((S)-4-acryloyl-2-methylpiperazin-1-yl)-9-chloro-10-(2-fluoro-6-hydroxyphenyl)-3-(hydroxymethyl)-2H-[1,4]oxazino[2,3,4-ij]quinazolin-5(3H)-one]

same assay, conditions: Table 4; 10 micromolar, after 60 minutes

% CAF(60 min) [%]	Compound
0	C=CC(=O)N1C[C@H](C)N(c2c(C#N)c(=O)n3c4c(c(-c5ccc(F)cc5F)ccc24)OC[C@H]3CN(C)C)C[C@H]1C [Example 52, (R)-7-((2S,5R)-4-acryloyl-2,5-dimethylpiperazin-1-yl)-10-(2,4-difluorophenyl)-3-((dimethylamino)methyl)-5-oxo-3,5-dihydro-2H-[1,4]oxazino[2,3,4-ij]quinoline-6-carbonitrile]

same assay, conditions: Table 6; 10 uM, 1 h

Compound	% CAF @ 10 uM, 1 h [%]
C=CC(=O)N1CCN(c2nc(=O)n3c4c(c(-c5c(O)cccc5F)c(Cl)cc24)OC[C@H]3CN2CCC(F)(F)C2)[C@@H](C)C1 (atropisomer, axis not shown) [Example 227, (3R,10R)-7-((S)-4-acryloyl-2-methyl-piperazin-1-yl)-9-chloro-3-((3,3-difluoropyrrolidin-1-yl)methyl)-10-(2-fluoro-6-hydroxyphenyl)-2,3-dihydro-5H-[1,4]-oxazino-[2,3,4-ij]-quinazolin-5-one]	0
C=CC(=O)N1C[C@H](C)N(c2nc(=O)n3c4c(c(-c5c(O)cccc5F)c(Cl)cc24)OC[C@@H]3CN2CCN(C)CC2)C[C@H]1C (atropisomer, axis not shown) [Example 305, (3S,10R)-7-((2S,5R)-4-acryloyl-2,5-dimethylpiperazin-1-yl)-9-chloro-10-(2-fluoro-6-hydroxyphen-yl)-3-((4-methylpiper-azin-1-yl)methyl)-2,3-dihydro-5H-[1,4]-oxazino[2,3,4-ij]-quinazolin-5-one]	0
C=CC(=O)N1C[C@H](C)N(c2nc(=O)n3c4c(c(-c5c(C)ccc6[nH]ncc56)c(Cl)cc24)OC[C@H]3CCCN2C[C@@H]3C[C@H]2CO3)C[C@H]1C [Example 325, (3R,10S)-3-(3-((1S,4S)-2-oxa-5-azabicyclo[2.2.1]heptan-5-yl)propyl)-7-((2S,5R)-4-acryloyl-2,5-dimethylpiperazin-1-yl)-9-chloro-10-(5-methyl-1H-indazol-4-yl)-2,3-dihydro-5H-[1,4]oxazino [2,3,4-ij] quinazolin-5-one]	0
C=CC(=O)N1CCN(c2nc(=O)n3c4c(c(-c5c(O)cccc5F)c(Cl)cc24)OC[C@H]3CN2CCOCC2)[C@@H](C)C1 [Example 199, (3R,10R)-7-((S)-4-aciyloyl-2-methylpiperazin-1-yl)-9-chloro-10-(2-fluoro-6-hydroxyphenyl)-3-(morpholinomethyl)-2,3-dihydro-5H-[1,4]oxazino[2,3,4-ij]quinazolin-5-one]	0

The remaining lines, values ahead:

% CAF @ 10 uM, 1 h [%]	Compound
0	C=CC(=O)N1C[C@H](C)N(c2nc(=O)n3c4c(c(-c5c(C)ccc6[nH]nnc56)ccc24)OCC3)C[C@H]1C [Example 219, 7-((2S,5R)-4-acryloyl-2,5-dimethylpiperazin-1-yl)-10-(5-methyl-1H-benzo[d][1,2,3]triazol-4-yl)-2,3-dihydro-5H-[1,4]oxazino[2,3,4-ij]quinazolin-5-one]
3	C=CC(=O)N1C[C@H](C)N(c2nc(=O)n3c4c(c(-c5c(O)cccc5F)c(Cl)cc24)OC[C@@H]3CN(C)CC(F)(F)F)C[C@H]1C (atropisomer, axis not shown) [Example 239, (3S,10R)-7-((2S,5R)-4-acryloyl-2,5-dimethylpiperazin-1-yl)-9-chloro-10-(2-fluoro-6-hydroxyphen-yl)-3-((methyl(2,2,2-trifluoroethyl)amino)-methyl)-2H-[1,4]-oxazino[2,3,4-ij]-quinazolin-5(3H)-one]
0	C=CC(=O)N1C[C@H](C)N(c2nc(=O)n3c4c(c(-c5c(O)cccc5F)c(Cl)cc24)OC[C@H]3CN2CCN(C)CC2)C[C@H]1C (atropisomer, axis not shown) [Example 300, (3R,10R)-7-((2S,5R)-4-acryloyl-2,5-dimethylpiperazin-1-yl)-9-chloro-10-(2-fluoro-6-hydroxyphen-yl)-3-((4-methylpiper-azin-1-yl)methyl)-2,3-dihydro-5H-[1,4]-oxazino[2,3,4-ij]-quinazolin-5-one]
0	C=CC(=O)N1C[C@H](C)N(c2nc(=O)n3c4c(c(-c5c(O)cccc5F)c(Cl)cc24)OC[C@@H]3CN2CCC(F)(F)C2)C[C@H]1C [Example 220, (3S,10R)-7-((2S,5R)-4-acryloyl-2,5-dimethylpiperazin-1-yl)-9-chloro-3-((3,3-difluoropyrrolidin-1-yl)methyl)-10-(2-fluoro-6-hydroxyphenyl)-2,3-dihydro-5H-[1,4]oxazino[2,3,4-ij]quinazolin-5-one]
0	C=CC(=O)N1C[C@H](C)N(c2nc(=O)n3c4c(c(-c5c(O)cccc5F)c(Cl)cc24)OC[C@H]3Cn2cccn2)C[C@H]1C (atropisomer, axis not shown) [Example 245, (3R,10R)-3-((1H-pyrazol-1-yl)methyl)-7-((2S,5R)-4-acryloyl-2,5-dimethylpiperazin-1-yl)-9-chloro-10-(2-fluoro-6-hydroxyphen-yl)-2H-[1,4]oxazino-[2,3,4-ij]quinazolin-5(3H)-one]
0	C=CC(=O)N1C[C@H](C)N(c2nc(=O)n3c4c(c(-c5c(F)ccc6cc[nH]c(=O)c56)ccc24)OCC3)C[C@H]1C [Example 224, 7-((2S,5R)-4-acryloyl-2,5-dimethylpiperazin-1-yl)-10-(7-fluoro-1-oxo-1,2-dihydroisoquinolin-8-yl)-2,3-dihydro-5H-[1,4]oxazino[2,3,4-ij]quinazolin-5-one]
0	C=CC(=O)N1C[C@H](C)N(c2nc(=O)n3c4c(c(-c5c(F)cccc5C(F)F)ccc24)OCC3)C[C@H]1C [Example 200, 7-((2S,5R)-4-acryloyl-2,5-dimethylpiperazin-1-yl)-10-(2-(difluoromethyl)-6-fluorophenyl)-2,3-dihydro-5H-[1,4]oxazino[2,3,4-ij]quinazolin-5-one]

same assay, conditions: Table 7; 10 micromolar, after 60 minutes

covalent adduct formation (CAF)	Compound
94.5	C=CC(=O)N1CCN(c2nc(=O)n3c4c(c(-c5ccc(F)cc5F)c(Cl)cc24)SC[C@H]3COC)[C@@H](C)C1 [Example 130, (3R)-7-((S)-4-acryloyl-2-methylpiperazin-1-yl)-9-chloro-10-(2,4-difluorophenyl)-3-(methoxymethyl)-2,3-dihydro-5H-[1,4]thiazino[2,3,4-ij]quinazolin-5-one]
94.7	C=CC(=O)N1CCN(c2nc(=O)n3c4c(c(-c5ccc(F)cc5F)c(Cl)cc24)SC[C@@H]3CCCN2C[C@@H]3C[C@H]2CO3)[C@@H](C)C1 [Example 342, (3S)-3-(3-((1S,4S)-2-oxa-5-azabicyclo [2.2.1]heptan-5-yl)-propyl)-7-((S)-4-acryloyl-2-methyl-piperazin-1-yl)-9-chloro-10-(2,4-difluorophenyl)-2H-[1,4]thiazino[2,3,4-ij]-quinazolin-5(3H)-one]
96.9	C=CC(=O)N1CCN(c2nc(=O)n3c4c(c(-c5c(F)cc(F)cc5F)c(Cl)cc24)SC[C@@H]3CCCN2C[C@@H]3C[C@H]2CO3)[C@@H](C)C1 [Example 340, (S)-3-(3-((1S,4S)-2-oxa-5-azabicyclo-[2.2.1]heptan-5-yl)-propyl)-7-((S)-4-acryloyl-2-methyl-piperazin-1-yl)-9-chloro-10-(2,4,6-trifluorophenyl)-2H-[1,4]thiazino[2,3,4-ij]-quinazolin-5(3H)-one]
96.5	C=CC(=O)N1CCN(c2nc(=O)n3c4c(c(-c5ccc(F)cc5F)c(Cl)cc24)SC[C@H]3CCCN2C[C@@H]3C[C@H]2CO3)[C@@H](C)C1 [Example 341, (3R)-3-(3-((1S,4S)-2-oxa-5-azabicyclo[2.2.1]heptan-5-yl)propyl)-7-((S)-4-acryloyl-2-methylpiperazin-1-yl)-9-chloro-10-(2,4-difluorophenyl)-2H-[1,4]thiazino[2,3,4-ij]quinazolin-5 (3H)-one]
86.8	C=CC(=O)N1CCN(c2nc(=O)n3c4c(c(-c5c(F)cc(F)cc5F)c(Cl)cc24)SC[C@H]3COC)[C@@H](C)C1 [Example 137, (R)-7-((S)-4-acryloyl-2-methylpiperazin-1-yl)-9-chloro-3-(methoxymethyl)-10-(2,4,6-trifluorophenyl)-2,3-dihydro-5H-[1,4]thiazino[2,3,4-ij]quinazolin-5-one]

— US20230203063A1, “TRICYCLIC PYRIDONES AND PYRIMIDONES” (Erasca, Inc., priority 2019, published 2023)
